In patent US12263349B2, “Method of treatment of biological surfaces” (Koite Health Oy, priority 2018, dated 2025):
Entries after “also recorded” stand apart in the source; their conditions may differ.

Experiments:
[1] = system: Streptococcus mutans biofilm; experiment: Streptococcus mutans monospecies biofilm model, PDT with indocyanine green, viability by serial dilution CFU; assay type: cell-based, Streptococcus mutans (ATCC 25175)
Protocol: In a third series of test, the adaptability of Streptococcus mutans biofilms to multi and single wavelength PDT treatments, respectively, was compared.
Two separate monospecies biofilm model experiments were performed to study the effect of reoccurring photodynamic therapy on biofilm formation. The Streptococcus mutans biofilm experiments were divided in different classes based on biofilm age and the therapy given.
The one-time PDT treatment was performed for 1 day, 2 days and 4 days old biofilms. […] The viability of the bacteria was assessed by serial dilution CFU method which was performed after the last photodynamic therapy treatment.
Streptococcus mutans (ATCC 25175) bacteria was grown over 18 h in growth chamber (36° C., 5% CO2) in BHI-broth (Bio-Rad 3564014). The resulting bacteria suspension was diluted with 0.9% NaCl suspension to optical density of 0.46.
Biofilm was grown on bottom of well plate by adding 100 μl diluted Streptococcus mutans suspension in each well with 100 μl of BHI-broth growth medium. The bacteria plate was incubated in growth chamber (36 Celsius, 5% CO2) and BHI-broth medium changed daily.
Before the light exposure, the growth medium was replaced with indocyanine green suspension which was let to incubate in dark in room temperature for 10 minutes. After the incubation the biofilm was washed twice with 0.9% NaCl solution. The treatment time was calculated from desired light amount and known intensity.
The light exposure was performed by placing the well plate under known LED light source. The given light intensity was analyzed with Thorlabs PM100D and S121C sensor head. Treatment time was changed to result in desired light amount. […]
The first experiment of continuous treatment of Streptococcus biofilm with PDT was completed by using 250 μg/ml ICG with 810 nm light. Different age biofilms of 1 day, 2 days and 4 days were grown, and the treatment was given once to each biofilm to evaluated the effect of single time treatment to differently aged biofilms. […]

[2] = system: Streptococcus mutans; experiment: Bacteria plate study: antibacterial effect of 405 nm light compared to PDT; assay type: cell-based; settings: FIG. 6
[3] = system: Streptococcus mutans biofilm; experiment: Potentiation of chlorhexidine with dual wavelength PDT; assay type: cell-based; settings: high and low energy photons with photosensitizer; FIG. 3
Excerpt: Treatment can be combined with topic use of antibiotics and disinfectants for synergist antipathogen effect. For example, the use phototherapy with chlorhexidine to target biofilms is new to oral disinfection. The results of dual wavelength photodynamic therapy with chlorhexidine against Streptococcus mutans biofilm shown in appendix III are completely new. […] The effectivity is based on photon and anionic photosensitizer ability to penetrate deeper into biofilm and provide efficient bacteria killing inside the biofilm as well as on the surface. The chlorhexidine effect is mostly present only on the surface of the biofilm. High energy photons reduce the biofilm EPS matrix formation that further increases the chlorhexidine effectivity in subsequent treatments. In a second series of tests, potentiation of chlorhexidine with dual wavelength PDT was evaluated.

[4] = system: monospecies biofilm of Streptococcus sobrinus; settings: biofilm versus planktonic form; cited from earlier work

Compound	effect of PDT treatment on biofilm (CFU), every day treated ([1]; 250 μg/ml ICG with 810 nm light (single wavelength), 4 days old biofilm treated every day)	effect of PDT treatment on biofilm (CFU), treatment given once ([1]; 250 μg/ml ICG with 810 nm light, single treatment of 1 day, 2 days and 4 days old biofilms)	bacteria killing with double wavelength PDT, every day therapy versus day 4 only ([1]; ICG, 810 nm combined with 405 nm light, 4 days old biofilm)	light dose resulting in complete inhibition of Streptococcus mutans growth [2]	antimicrobial effect of chlorhexidine combined with multi wavelength PDT versus reference and one wavelength [3]	times greater concentration needed to kill biofilm than planktonic counterpart [4]
CC1(C)C(/C=C/C=C/C=C/C=C2\N(CCCCS(=O)(=O)O)c3ccc4ccccc4c3C2(C)C)=[N+](CCCCS(=O)(=O)[O-])c2ccc3ccccc3c21 [ICG, Indocyanine green]	poor treatment effect; also recorded: failed to achieve strong bacteria killing	strong effect of PDT treatment	No significant difference of bacteria killing; also recorded: no bacteria biofilm adaptation to the treatment was observed	4 J/cm^2		
[H]/N=C(\N/C(=N/[H])NCCCCCCNC(=N)NC(=N)Nc1ccc(Cl)cc1)Nc1ccc(Cl)cc1 [chlorhexidine]					increased substantially the antibacterial effect; also recorded: much stronger effect	100
amine fluoride						100
